Source: patent US6737383B1, “Herbicidal oxadiazolidines” (priority 1999, dated 2004)

How the values were obtained:
blackgrass = assay: Test B pre/postemergence blackgrass; assay type: in vivo, Alopecurus myosuroides
Outline: (§1)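 Herbicidal effect was estimated by eye on a ten-point control scale after plants spent twelve to sixteen days in a greenhouse following soil or foliar treatment. Foliar sprays targeted plants at one to four leaves; all doses were formulated in a non-phytotoxic solvent with surfactant.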

wheat = assay: Test B pre/postemergence wheat; assay type: in vivo, Triticum aestivum
Outline: as §1

bedstraw = assay: Test B pre/postemergence bedstraw; assay type: in vivo, Galium aparine
Outline: as §1

velvetleaf = assay: Test B pre/postemergence velvetleaf; assay type: in vivo, Abutilon theophrasti
Outline: as §1

sugar beet = assay: Test B pre/postemergence sugar beet; assay type: in vivo, Beta vulgaris
Outline: as §1

corn = assay: Test B pre/postemergence corn; assay type: in vivo, Zea mays
Outline: as §1

giant foxtail = assay: Test B pre/postemergence giant foxtail; assay type: in vivo, Setaria faberii
Outline: as §1

pigweed = assay: Test B pre/postemergence pigweed; assay type: in vivo, Amaranthus retroflexus
Outline: as §1

surinam grass = assay: Test B pre/postemergence surinam grass; assay type: in vivo, Brachiaria decumbens
Outline: as §1

purple nutsedge = assay: Test B pre/postemergence purple nutsedge; assay type: in vivo, Cyperus rotundus
Outline: as §1

duck salad = assay: Test B flood test duck salad; assay type: in vivo, Heteranthera limosa
Outline: (§2)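 Read-out is a visual response score from 0 (no effect) to 10 (complete control), assigned by comparison with untreated controls. Treatment was applied at the 2-leaf stage, and plants stayed in the greenhouse for twelve to sixteen days before scoring.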

cocklebur = assay: Test B pre/postemergence cocklebur; assay type: in vivo, Xanthium strumarium
Outline: as §1

wild oat = assay: Test B pre/postemergence wild oat; assay type: in vivo, Avena fatua
Outline: as §1

rice = assay: Test B flood test rice; assay type: in vivo, Oryza sativa
Outline: as §2

crabgrass = assay: Test B pre/postemergence crabgrass; assay type: in vivo, Digitaria sanguinalis
Outline: as §1

soybean = assay: Test B pre/postemergence soybean; assay type: in vivo, Glycine max
Outline: as §1

[1] = Postemergence, Rate 62 g/ha, scale 0 to 10, 0 is no effect, 10 is complete control
[2] = Postemergence, Rate 125 g/ha, scale of 0 to 10 where 0 is no effect and 10 is complete control
[3] = Postemergence, Rate 250 g/ha, scale of 0 to 10, 0 is no effect, 10 is complete control
[4] = Postemergence, Rate 500 g/ha, scale of 0 to 10 where 0 is no effect and 10 is complete control
[5] = Preemergence, Rate 62 g/ha, scale 0 to 10 (0 no effect, 10 complete control)
[6] = Preemergence, Rate 125 g/ha, scale of 0 to 10 where 0 is no effect and 10 is complete control
[7] = Preemergence, Rate 250 g/ha, scale 0 to 10 (0 no effect, 10 complete control)
[8] = Preemergence, Rate 500 g/ha, scale of 0 to 10 where 0 is no effect and 10 is complete control
[9] = Rate 62 g/ha, flood test species, Pre-emergence, visual evaluation after twelve to sixteen days
[10] = Rate 125 g/ha, under heading Pre-emergence, flood test species, visual evaluation after twelve to sixteen days
[11] = Rate 250 g/ha, Pre-emergence (flood test species), scale 0 to 10, 0 is no effect, 10 is complete control
[12] = Rate 500 g/ha, Pre-emergence section of Table B, 0 to 10 scale (0 no effect, 10 complete control)

CCOC(=O)CC(C(=O)OCC)n1c(=O)on(C(=O)N(c2ccc(F)cc2)C(C)C)c1=O (centres unmarked) [Compound 615]
1: Plant response rating, Soybean (soybean; [1]) | Plant response rating, Soybean (soybean; [2])
0: Plant response rating, Blackgrass (blackgrass; [1]) | Plant response rating, Blackgrass (blackgrass; [2]) | Blackgrass plant response rating (blackgrass; [3]) | Plant response rating, Blackgrass (blackgrass; [4]) | Blackgrass plant response rating (blackgrass; [5]) | Blackgrass plant response rating (blackgrass; [6]) | Plant response rating, Blackgrass (blackgrass; [7]) | Plant response rating, Wheat (wheat; [1]) | Plant response rating, Wheat (wheat; [2]) | Wheat plant response rating (wheat; [3]) | Plant response rating, Wheat (wheat; [4]) | Wheat plant response rating (wheat; [5]) | Wheat plant response rating (wheat; [6]) | Plant response rating, Wheat (wheat; [7]) | Plant response rating, Wheat (wheat; [8]) | Plant response rating, Bedstraw (bedstraw; [1]) | Plant response rating, Bedstraw (bedstraw; [2]) | Bedstraw plant response rating (bedstraw; [5]) | Bedstraw plant response rating (bedstraw; [6]) | Plant response rating, Bedstraw (bedstraw; [7]) | Bedstraw plant response rating (bedstraw; [8]) | Plant response rating, Velvetleaf (velvetleaf; [1]) | Plant response rating, Velvetleaf (velvetleaf; [2]) | Velvetleaf plant response rating (velvetleaf; [3]) | Plant response rating, Velvetleaf (velvetleaf; [4]) | Velvetleaf plant response rating (velvetleaf; [5]) | Velvetleaf plant response rating (velvetleaf; [6]) | Plant response rating, Velvetleaf (velvetleaf; [7]) | Plant response rating, Velvetleaf (velvetleaf; [8]) | Plant response rating, Sugarbeets (sugar beet; [1]) | Plant response rating, Sugarbeets (sugar beet; [2]) | Sugarbeets plant response rating (sugar beet; [3]) | Plant response rating, Sugarbeets (sugar beet; [4]) | Sugarbeets plant response rating (sugar beet; [5]) | Sugarbeets plant response rating (sugar beet; [6]) | Plant response rating, Sugarbeets (sugar beet; [7]) | Plant response rating, Corn (corn; [1]) | Plant response rating, Corn (corn; [2]) | Corn plant response rating (corn; [3]) | Plant response rating, Corn (corn; [4]) | Corn plant response rating (corn; [5]) | Corn plant response rating (corn; [6]) | Plant response rating, Corn (corn; [7]) | Plant response rating, Corn (corn; [8]) | Plant response rating, Giant foxtail (giant foxtail; [1]) | Plant response rating, Giant foxtail (giant foxtail; [2]) | Giant foxtail plant response rating (giant foxtail; [5]) | Giant foxtail plant response rating (giant foxtail; [6]) | Plant response rating, Giant foxtail (giant foxtail; [7]) | Plant response rating, Redroot pigweed (pigweed; [1]) | Plant response rating, Redroot pigweed (pigweed; [2]) | Redroot pigweed plant response rating (pigweed; [3]) | Plant response rating, Redroot pigweed (pigweed; [4]) | Redroot pigweed plant response rating (pigweed; [5]) | Redroot pigweed plant response rating (pigweed; [6]) | Plant response rating, Redroot pigweed (pigweed; [7]) | Plant response rating, B. signalgrass (surinam grass; [1]) | Plant response rating, B. signalgrass (surinam grass; [2]) | B. signalgrass plant response rating (surinam grass; [3]) | Plant response rating, B. signalgrass (surinam grass; [4]) | B. signalgrass plant response rating (surinam grass; [5]) | B. signalgrass plant response rating (surinam grass; [6]) | Plant response rating, B. signalgrass (surinam grass; [7]) | B. signalgrass plant response rating (surinam grass; [8]) | Plant response rating, Nutsedge (purple nutsedge; [1]) | Plant response rating, Nutsedge (purple nutsedge; [2]) | Nutsedge plant response rating (purple nutsedge; [3]) | Nutsedge plant response rating (purple nutsedge; [5]) | Nutsedge plant response rating (purple nutsedge; [6]) | Plant response rating, Nutsedge (purple nutsedge; [7]) | Plant response rating, Nutsedge (purple nutsedge; [8]) | Plant response rating, Ducksalad (0 to 10 scale, 0 is no effect, 10 is complete control) (duck salad; [9]) | Ducksalad plant response rating (0 to 10 scale, 0 is no effect, 10 is complete control) (duck salad; [10]) | Ducksalad plant response rating (duck salad; [11]) | Ducksalad plant response rating (duck salad; [12]) | Plant response rating, Cocklebur (cocklebur; [1]) | Plant response rating, Cocklebur (cocklebur; [2]) | Cocklebur plant response rating (cocklebur; [3]) | Plant response rating, Cocklebur (cocklebur; [4]) | Cocklebur plant response rating (cocklebur; [5]) | Cocklebur plant response rating (cocklebur; [6]) | Plant response rating, Cocklebur (cocklebur; [7]) | Plant response rating, Cocklebur (cocklebur; [8]) | Plant response rating, Wild oats (wild oat; [1]) | Plant response rating, Wild oats (wild oat; [2]) | Wild oats plant response rating (wild oat; [3]) | Plant response rating, Wild oats (wild oat; [4]) | Wild oats plant response rating (wild oat; [5]) | Wild oats plant response rating (wild oat; [6]) | Plant response rating, Wild oats (wild oat; [7]) | Plant response rating, Wild oats (wild oat; [8]) | Plant response rating, Rice (0 to 10 scale, 0 is no effect, 10 is complete control) (rice; [9]) | Rice plant response rating (0 to 10 scale, 0 is no effect, 10 is complete control) (rice; [10]) | Rice plant response rating (rice; [11]) | Rice plant response rating (rice; [12]) | Plant response rating, Crabgrass (crabgrass; [1]) | Plant response rating, Crabgrass (crabgrass; [2]) | Crabgrass plant response rating (crabgrass; [5]) | Crabgrass plant response rating (crabgrass; [6]) | Plant response rating, Crabgrass (crabgrass; [7]) | Plant response rating, Crabgrass (crabgrass; [8]) | Soybean plant response rating (soybean; [5]) | Soybean plant response rating (soybean; [6]) | Plant response rating, Soybean (soybean; [7]) | Plant response rating, Soybean (soybean; [8])
4: Blackgrass plant response rating (blackgrass; [8]) | Plant response rating, Redroot pigweed (pigweed; [8]) | Crabgrass plant response rating (crabgrass; [3])
7: Plant response rating, Giant foxtail (giant foxtail; [8])
6: Plant response rating, Sugarbeets (sugar beet; [8]) | Giant foxtail plant response rating (giant foxtail; [3]) | Plant response rating, Giant foxtail (giant foxtail; [4])
3: Soybean plant response rating (soybean; [3]) | Plant response rating, Soybean (soybean; [4])
